One series deals with T1, BRD4-BD1 (Homo sapiens, UniProt O60885).
T1 construct: purchased ReactionBiologyCorp; (RBC)
Nature of the series: BRD4 AlphaScreen determination (BD1). The format is binding. Particulars: AlphaScreen, protein binding inhibition; read-out: BRD4-BD1 IC50. On the procedure:
(§1) (1) 1× Assay buffer was prepared according to the kit requirements of ReactionBiologyCorp. (RBC). (2) Compound concentration gradient preparation: the test compounds were tested at final concentrations starting at 10 μM, with 10 concentrations at 3-fold dilution and single well test was set for each concentration. The positive control compound(+)-JQ-1 was tested at final concentrations starting at 1 μM, with 10 concentrations at 3-fold dilution, and duplicated well test was set for each concentration. The solution was gradient diluted to the corresponding 1000-fold final concentration in a 384-well Source plate, and then 20 nL of the solution was transferred to the 384-well reaction plate with Echo550 to be measured. 20 nL of 100% DMSO was transferred to the Max well, and the highest concentration of the positive compounds were transferred to the Min wells. […] (6) 5 μL of 4× peptide solution was added to each well of the reaction plate, centrifuged at 1000 rpm for 1 min. (7) 10 μL of the assay solution was added, centrifuged at 1000 rpm for 60 seconds, the solution was mixed with gentle shaking, and incubated at room temperature for 60 minutes. (8) Reading with EnVision. (9) The IC50 values of the compounds for protein binding inhibition was obtained by fitting the dose-effect curve with the analytical software GraphPad Prism 5. (See Table 1 for specific values)

A further series addresses T2, BRD4-BD2 (Homo sapiens, UniProt O60885).
T2 construct: purchased ReactionBiologyCorp; (RBC)
Nature of the series: BRD4 AlphaScreen determination (BD2). The format is binding. Particulars: AlphaScreen, protein binding inhibition; read-out: BRD4-BD2 IC50. The protocol:
as §1

A further series deals with MV4-11 cells. Nature of the series: Inhibition of proliferation of MV4-11 cells (CellTiter-Glo). Particulars: Homo sapiens, 72 h. The class given is cell-based. The protocol: Specific experimental steps: 1) Day 0: 96 inoculated cells were digested with trypsin and suspended in cell culture medium, the cell density was detected by an automatic cell counter and the cells were diluted with the culture medium to a suitable density, 100 μL of cell suspension was added to the 96-well plate, and the cell-free medium was used as a control well, and the wells were incubated in a 37° C., 5% CO2 cell incubator overnight; 2) Day 1: A total of 8 concentrations of the compound to be tested in the drug-treated cells were tested at 3-fold dilution, 10 μM was the starting assay concentration of the compound to be tested. Specific steps: 200× compound mother liquor was prepared, the compound was diluted with culture medium to a final concentration of […], that is, 3 μL of 200× compound was added to 197 μL of culture medium, 50 μL diluted compound was added to each well of the 96-well plate, and placed at 37° C., 5% CO2 cell culture incubator for 72 h; 3) Day 4: Cell viability detection: 96-well cell plate was first equilibrated to room temperature, 40 μL of CellTiter-Glo® reagent was added to each well, mixed on a shaker for 2 minutes to fully lyse the cells, incubated at room temperature for 10 minutes to stabilize the luminescence signal, and the luminescence value was read by the Envision microplate reader; 4) data processing was performed by GraphPad Prism 5.0 software to analyze the data, and nonlinear S-curve regression was used to fit the data to obtain a dose-effect curve, and from which the ICso value was calculated. Inhibition rate %=(DMSO treated cell wells−compound treated cell wells)/(DMSO treated cell wells−cell free medium wells)×100. The ICso value was obtained by the four-parameter regression method using the random software in the microplate reader. (See Table 2 for specific values)
On the technique in general: In ATP-based viability assays light output follows the ATP content of the culture.

For series [1], the system named is most AML cell lines and prostate cancer cell lines. Nature of the series: Proliferation inhibition of different cell lines: AML and prostate cancer lines. The format is cell-based. Particulars: read-out: proliferation inhibitory activity IC50. The protocol:
(§2) The proliferation inhibitory activity of some of the embodiment compounds against different cell lines such as LNCAP (+R1881), SKM-1, 22RV1, DU145, MOLM13, MDA-PCA-2b, KASUMI 1, THP-1, KG-1, IEC6, H1299, etc., was tested using similar methods in test embodiment 2 and in the literature.

Series [2] relates to LNCAP, SKM-1, MOLM13, KASUMI 1, THP-1, KG-1. Description: Proliferation inhibition of different cell lines: most sensitive lines. The class given is cell-based. Particulars: some cell lines such as LNCAP, read-out: proliferation inhibitory activity IC50. The protocol:
as §2

In another series the test system is IEC6. Nature of the series: Proliferation inhibition of IEC6 cells. The class given is cell-based. Particulars: Rattus norvegicus, IEC-6; IEC6 cell line; read-out: proliferation inhibitory activity IC50. On the procedure: as §2
Another series has as its system H1299. Description: Proliferation inhibition of H1299 cells. The note with it: Homo sapiens, NCI-H1299; H1299 cell line; read-out: proliferation inhibitory activity IC50. The class given is cell-based. On the procedure:
as §2

Series [3] is described as follows: Metabolic stability in mouse liver microsomes. The format is in vitro ADME. The note with it: liver microsomes 0.5 mg/mL, NADPH, 1 μM compound, read-out: Mouse microsomal T1/2. On the procedure: (§3) (1) Metabolic stability test: 150 μL of liver microsomes (final concentration was 0.5 mg/mL) were subjected to metabolic stability incubation, the system containing NADPH (final concentration was 1 mM), 1 μM of the test compound and the positive control midazolam or the negative control atenolol, the reaction was terminated with acetonitrile containing tinidazole at 0 min, 5 min, 10 min, and 30 min, respectively, then the mixture was vortexed for 10 min, and centrifuged at 15000 rmp for 10 min, 50 μL of the supernatant was injected into 96 well. The metabolic stability of the compound was calculated by measuring the relative reduction of the original drug. (See Table 3 for specific values)
Background: Microsomes from liver hold many membrane-bound enzymes, among them those of drug oxidation.

A short description of series [4]: Metabolic stability in rat liver microsomes. The format is in vitro ADME. Particulars: liver microsomes 0.5 mg/mL, NADPH, 1 μM compound, read-out: Rat microsomal T1/2. The protocol:
as §3

The nature of series [5]: Metabolic stability in dog liver microsomes. The format is in vitro ADME. Particulars: liver microsomes 0.5 mg/mL, NADPH, 1 μM compound, read-out: Dog microsomal T1/2. On the procedure:
as §3

Series [6] is described as follows: In vivo pharmacokinetics in mice. Particulars: male, Balb c, mouse, plasma, po, 5 mg/kg. The protocol: Six male SPF-grade SD rats or Balb c mice (Shanghai B&K laboratory animals) were divided into two groups and the test compounds were configured into suitable solutions or suspensions; one group was administered intravenously and one group was administered orally. Blood was collected by jugular vein puncture, and each sample was collected about 0.2 mL/time point, heparin sodium was used for anticoagulation, the blood collection time points were as follows: before administration and 5, 15 and 30 minutes, 1, 2, 4, 6, 8 and 24 h after administration, the blood sample was collected and placed on ice, centrifuged to separate the plasma (centrifugation conditions: 8000 rpm, 6 minutes, 2-8° C.), and the collected plasma was stored at −80° C. before analysis. The plasma samples were analyzed by LC-MS/MS.
According to the blood drug concentration data of the drug, the pharmacokinetic calculation software WinNonlin5.2 non-compartmental model was used to calculate the pharmacokinetic parameters AUC0-t, AUC0-∞, MRT0-∞, Cmax, Tmax, T1/2 and Vd and other parameters and their mean and standard deviation. In addition, the bioavailability (F) was calculated by the following formula.
For samples with a concentration lower than the lower limit of quantification, when calculating the pharmacokinetic parameters, the samples sampled before reaching Cmax should be calculated as zero, and samples sampled after reaching Cmax should be calculated as unquantifiable (BLQ).

In series [7] the test system is MV 4-11 transplanted tumor. Description: Growth inhibition of MV 4-11 transplanted tumor in nude mice. The format is in vivo. Particulars: dose of 15 mpk, oral, daily. On the procedure:
The tumor tissue in vigorous growth stage was cut into about 1.5 mm^3 and inoculated subcutaneously in the right armpit of nude mice under sterile conditions. The diameter of subcutaneous transplanted tumor in nude mice was measured with vernier caliper, and the animals were randomly divided into groups when the average tumor volume was about 130 mm^3. […] During the whole experiment, the diameter of the transplanted tumor was measured twice a week, and the weight of mice was weighed at the same time. The calculation formula of tumor volume (TV) was: TV=½×a×b^2, wherein a and b represent the length and width respectively. The relative tumor volume (RTV) was calculated according to the measurement results, and the calculation formula was: RTV=VT/v0. Wherein VO is the tumor volume measured during the administration in cage (i.e., d0), and Vt is the tumor volume at each measurement.

On to `Cc1cc(F)cc(C)c1Oc1ccc(C(C)(C)O)cc1-c1cn(C)c(=O)c2cc(C(=O)NCC(F)F)[nH]c12` [Embodiment 11, N-(2,2-difluoroethyl)-7-(2-(4-fluoro-2,6-dimethylphenoxy)-5-(2-hydroxyprop-2-yl)phenyl)-5-methyl-4-oxo-4,5-dihydro-1H-pyrrolo[3,2-c] pyridine-2-amide], for which the IC50 on BRD4-BD1 is 109 nM; at BRD4-BD2, 0.57 nM; with MV4-11 cells, 20.4 nM; in series [1], less than 1000 nM; in series [2], less than 100 nM; with IEC6, more than 1000 nM. In the series with H1299, the IC50 is more than 1000 nM. The half-life at 1 μM in [3] was 0.65 h; in series [4], 1.28 h; in series [5] it was 6.72 h.

On to `CCNC(=O)c1cc2c(-c3cc(C(C)(C)O)ccc3Oc3c(C)cc(F)cc3C)cn(C)c(=O)c2[nH]1` [compound 1, N-ethyl-4-(2-(4-fluoro-2,6-dimethylphenoxy)-5-(2-hydroxyprop-2-yl)phenyl)-6-methyl-7-oxo-6,7-dihydro-1H-pyrrolo[2,3-c]pyridine-2-amide, reference compound], for which the IC50 in the series with MV4-11 cells was 32 nM. The half-life at 1 μM in [3] was determined as 0.317 h; in [4], 1.03 h; in [5] it was 1.13 h. For the same compound, the bioavailability (commonly the share of a dose that reaches the circulation, judged against a reference dose that is usually intravenous) in [6] was 25%. Besides, the “inhibitory rate (growth of transplanted tumor)” value in [7] is recorded as “about 60%”.

For the compound `CCNC(=O)c1cc2c(=O)n(C)cc(-c3cc(C(C)(C)O)ccc3Oc3c(C)cc(F)cc3C)c2[nH]1`, the half-life at 1 μM in series [3] amounted to 2.83 h; in series [4], 2.8 h; in series [5], 3.25 h.

In the case of `Cc1cc(F)cc(C)c1Oc1ccc(C(C)(C)O)cc1-c1cn(C)c(=O)c2cc(C(=O)NC3CC3)[nH]c12` [Embodiment 16, N-cyclopropyl-7-(2-(4-fluoro-2,6-dimethylphenoxy)-5-(2-hydroxyprop-2-yl)phenyl)-5-methyl-4-oxo-4,5-dihydro-1H-pyrrolo[3,2-c]pyridine-2-amide], the IC50 at BRD4-BD1 is 93 nM; on BRD4-BD2, less than 0.5 nM; in the series on MV4-11 cells it was 7.95 nM.

In the case of `Cc1cc(F)cc(C)c1Oc1ccc(C(C)(C)O)cc1-c1cn(C)c(=O)c2cc(C(=O)N3CC(F)(F)C3)[nH]c12` [Embodiment 19, 2-(3,3-difluoroazetidine-1-carbonyl)-7-(2-(4-fluoro-2,6-dimethylphenoxy)-5-(2-hydroxyprop-2-yl)phenyl)-5-methyl-1,5-dihydro-4H-pyrrolo[3,2-c]pyridin-4-one], the IC50 stood at 292 nM at BRD4-BD1, 2.8 nM on BRD4-BD2 and 147 nM with MV4-11 cells.
